Experiments:
TrkB = molecular target: T1, TrkB (Homo sapiens, UniProt Q16620); assay: Cell-based Enzyme Fragment Complementation (EFC) assay, U2OS cells over-expressing TrkB; conditions: compound pre-mixed with ligand, final ligand concentration 10 ng/mL, 3 hours at room temperature, read-out: TrkB potency expressed as EC50
T1 construct: expressed in transfected cells; host or cells: U2OS
Source text: (§1) A high throughput cell-based screen has been used to identify positive modulators of TrkA, TrkB and TrkC. The screen involves the use of cell-based assay overexpressing TrkA, TrkB or TrkC. The purpose of the assay is to identify compounds that modulate neurotrophin signalling (Forsell et al 2012). The assay can be used in inhibitor mode using a high concentration of ligand, in modulator mode using an intermediate concentration and in agonist mode using a low concentration of ligand.
(§2) The assay uses Enzyme Fragment Complementation (EFC) technique, which is a proximity-based assay. Briefly, cells used in this assay over-express two fusion proteins, i.e. the receptor, which can be one of TrkA, TrkB or TrkC fused to a small peptide of beta-galactosidase and an adaptor protein, i.e. SHC1 (or any other Trk-adaptor protein) fused to the major part of beta-galactosidase. […] The proximity between the small activating peptide on the receptor and the major part of beta-galactosidase on the adaptor protein leads to an active beta-galactosidase enzyme. The activation of the receptor is quantified by measuring the amount of active beta-galactosidase by its conversion of a non-luminescent substrate into a luminescent product.
(§3) U2OS-cells, over-expressing TrkA or TrkB or TrkC, were plated in 96- or 384-well plates and incubated overnight. On the following day, test compound was pre-mixed with ligand (NGF) and the ligand-compound mixture is then added to the cells to yield a final ligand concentration of 10 ng/mL. After 3 hours of incubation at room temperature, the incubation is stopped by the addition of a beta-galactosidase substrate mixture containing detergents. The substrate mixture is incubated for 60 minutes at ambient temperature. The luminescence is thereafter read by the use of a plate reader.

TrkA = molecular target: T2, TrkA (Homo sapiens, UniProt P04629); assay: Cell-based Enzyme Fragment Complementation (EFC) assay, U2OS cells over-expressing TrkA; conditions: compound pre-mixed with ligand (NGF), final ligand concentration 10 ng/mL, 3 hours at room temperature, read-out: TrkA potency expressed as EC50
T2 construct: expressed in transfected cells; host or cells: U2OS
Source text: as §1, §2, §3

TrkC = molecular target: T3, TrkC (Homo sapiens, UniProt Q16288); assay: Cell-based Enzyme Fragment Complementation (EFC) assay, U2OS cells over-expressing TrkC; conditions: compound pre-mixed with ligand, final ligand concentration 10 ng/mL, 3 hours at room temperature, read-out: TrkC potency expressed as EC50
T3 construct: expressed in transfected cells; host or cells: U2OS
Source text: as §1, §2
U2OS-cells, over-expressing TrkA or TrkB or TrkC, were plated in 96- or 384-well plates and incubated overnight. […] The luminescence is thereafter read by the use of a plate reader.

[1] = test system: ephrin type-B receptor 2 (EphB2); conditions: Suzuki et al., FEBS Open Bio 2016; cited from earlier work

T2 sequence (P04629 33-796): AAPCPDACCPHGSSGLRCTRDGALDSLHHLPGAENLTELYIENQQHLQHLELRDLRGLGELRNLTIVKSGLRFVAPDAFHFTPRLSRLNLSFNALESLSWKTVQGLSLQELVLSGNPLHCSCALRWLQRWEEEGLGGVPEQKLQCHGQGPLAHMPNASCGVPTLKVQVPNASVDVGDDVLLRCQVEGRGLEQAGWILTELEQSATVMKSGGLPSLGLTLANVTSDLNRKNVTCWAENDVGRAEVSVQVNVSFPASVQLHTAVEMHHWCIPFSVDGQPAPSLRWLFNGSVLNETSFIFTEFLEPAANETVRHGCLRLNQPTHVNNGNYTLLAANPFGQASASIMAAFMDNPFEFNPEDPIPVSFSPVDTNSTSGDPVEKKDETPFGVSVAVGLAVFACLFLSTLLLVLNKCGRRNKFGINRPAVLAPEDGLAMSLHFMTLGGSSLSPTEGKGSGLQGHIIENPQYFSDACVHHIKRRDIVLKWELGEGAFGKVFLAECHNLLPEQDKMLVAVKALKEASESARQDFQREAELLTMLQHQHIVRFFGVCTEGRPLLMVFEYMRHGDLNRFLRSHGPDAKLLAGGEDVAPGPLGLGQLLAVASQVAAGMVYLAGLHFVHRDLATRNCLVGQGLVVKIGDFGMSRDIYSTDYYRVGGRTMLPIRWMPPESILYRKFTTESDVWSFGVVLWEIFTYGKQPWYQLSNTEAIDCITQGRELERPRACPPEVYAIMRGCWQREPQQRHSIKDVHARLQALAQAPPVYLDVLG
T1 sequence (Q16620 32-822): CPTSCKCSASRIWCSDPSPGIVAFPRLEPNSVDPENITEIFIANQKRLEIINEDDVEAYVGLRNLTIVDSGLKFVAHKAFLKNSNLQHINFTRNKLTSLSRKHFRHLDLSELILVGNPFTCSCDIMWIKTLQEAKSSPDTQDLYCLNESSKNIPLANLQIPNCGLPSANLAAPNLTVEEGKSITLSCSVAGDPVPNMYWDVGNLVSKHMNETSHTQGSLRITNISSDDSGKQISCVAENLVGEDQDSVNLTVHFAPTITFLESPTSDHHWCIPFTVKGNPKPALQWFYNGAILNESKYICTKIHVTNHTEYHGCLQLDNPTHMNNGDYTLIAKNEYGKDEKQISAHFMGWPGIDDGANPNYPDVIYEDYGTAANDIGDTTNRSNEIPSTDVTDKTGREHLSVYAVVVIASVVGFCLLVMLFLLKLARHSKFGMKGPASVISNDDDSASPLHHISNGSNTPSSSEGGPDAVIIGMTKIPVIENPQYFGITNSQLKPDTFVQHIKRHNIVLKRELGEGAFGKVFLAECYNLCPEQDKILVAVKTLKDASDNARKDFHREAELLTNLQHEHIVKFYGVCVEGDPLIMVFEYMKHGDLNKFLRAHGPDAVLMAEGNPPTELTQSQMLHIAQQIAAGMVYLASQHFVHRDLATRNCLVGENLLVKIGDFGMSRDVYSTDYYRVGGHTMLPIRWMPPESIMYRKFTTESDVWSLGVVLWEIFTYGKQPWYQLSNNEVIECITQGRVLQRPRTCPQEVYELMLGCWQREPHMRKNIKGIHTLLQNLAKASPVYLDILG
T3 sequence (Q16288 32-839): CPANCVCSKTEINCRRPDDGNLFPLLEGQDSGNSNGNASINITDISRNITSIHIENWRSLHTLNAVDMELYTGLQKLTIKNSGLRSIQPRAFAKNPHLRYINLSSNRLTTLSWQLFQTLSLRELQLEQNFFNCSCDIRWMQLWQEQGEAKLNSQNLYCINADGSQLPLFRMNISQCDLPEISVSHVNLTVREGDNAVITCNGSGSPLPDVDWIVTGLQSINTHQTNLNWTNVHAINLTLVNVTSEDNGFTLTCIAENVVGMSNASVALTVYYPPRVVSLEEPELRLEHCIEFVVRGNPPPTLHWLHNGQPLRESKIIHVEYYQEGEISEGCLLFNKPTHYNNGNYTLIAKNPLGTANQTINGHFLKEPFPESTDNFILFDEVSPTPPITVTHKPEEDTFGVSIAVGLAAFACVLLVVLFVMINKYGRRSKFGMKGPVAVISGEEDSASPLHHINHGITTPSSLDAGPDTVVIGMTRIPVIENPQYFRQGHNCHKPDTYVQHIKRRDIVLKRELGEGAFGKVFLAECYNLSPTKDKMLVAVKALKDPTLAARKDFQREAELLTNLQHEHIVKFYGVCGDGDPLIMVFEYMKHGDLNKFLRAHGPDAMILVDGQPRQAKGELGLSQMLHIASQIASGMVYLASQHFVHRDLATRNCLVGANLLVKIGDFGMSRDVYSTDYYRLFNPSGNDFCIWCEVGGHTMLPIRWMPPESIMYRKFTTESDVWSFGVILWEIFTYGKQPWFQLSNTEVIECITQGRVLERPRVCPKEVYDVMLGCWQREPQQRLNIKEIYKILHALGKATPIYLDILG

Compound `CCn1cc(Cc2cc(-n3c(=O)[nH]c(=O)n(-c4ccccc4)c3=O)ccc2Oc2ccccc2)cn1` [Example 16, 1-{3-[(1-ethyl-1H-pyrazol-4-yl)methyl]-4-phenoxyphenyl}-3-phenyl-1,3,5-triazinane-2,4,6-trione] has an EC50 (TrkB) of 0.17 µM and an EC50 (TrkA) of 0.18 µM.

Work on `Cc1cccc(-n2c(=O)[nH]c(=O)n(-c3ccc(Oc4ccccc4)c(OCc4ncc[nH]4)c3)c2=O)c1` [Example 9, 1-{3-[(1H-imidazol-2-yl)methoxy]-4-phenoxyphenyl}-3-(3-methylphenyl)-1,3,5-triazinane-2,4,6-trione] yielded an EC50 (TrkB) of 0.12 µM and an EC50 (TrkA) of 0.25 µM.

With `Cc1cccc(-n2c(=O)[nH]c(=O)n(-c3ccc(Oc4ccccc4)c(Cn4cnc(F)c4)c3)c2=O)c1` [Example 12, 1-{3-[(4-fluoro-1H-imidazol-1-yl)methyl]-4-phenoxyphenyl}-3-(3-methylphenyl)-1,3,5-triazinane-2,4,6-trione] the EC50 (TrkB) was 0.06 µM and the EC50 (TrkA) was 0.1 µM.

In the case of `Cc1cccc(-n2c(=O)[nH]c(=O)n(-c3ccc(Oc4ccccc4)c(OCc4cnc[nH]4)c3)c2=O)c1` [Example 10, 1-{3-[(1H-imidazol-5-yl)methoxy]-4-phenoxyphenyl}-3-(3-methylphenyl)-1,3,5-triazinane-2,4,6-trione], the EC50 (TrkB) is reported as 12 µM and the EC50 (TrkA) is reported as 1.67 µM.

Compound `CCc1ccc(Oc2ccc(-n3c(=O)[nH]c(=O)n(C)c3=O)cc2Cn2cccn2)cc1` [Example 4, 1-[4-(4-ethylphenoxy)-3-[(1H-pyrazol-1-yl)methyl]phenyl]-3-methyl-1,3,5-triazinane-2,4,6-trione] has an EC50 (TrkB) of 2.07 µM and an EC50 (TrkA) of 1.1 µM.

`Cn1c(=O)[nH]c(=O)n(-c2ccc(-c3ccccc3)c(Cn3cccn3)c2)c1=O` [Example 5, 1-methyl-3-{2-[(1H-pyrazol-1-yl)methyl]-[1,1′-biphenyl]-4-yl}-1,3,5-triazinane-2,4,6-trione] gave an EC50 (TrkB) of 31 µM and an EC50 (TrkA) of 1.32 µM.

`Cc1cccc(-n2c(=O)[nH]c(=O)n(-c3ccc(Oc4ccccc4)c(Cn4cc(F)cn4)c3)c2=O)c1` [Example 15, 1-{3-[(4-fluoro-1H-pyrazol-1-yl)methyl]-4-phenoxyphenyl}-3-(3-methylphenyl)-1,3,5-triazinane-2,4,6-trione] gave an EC50 (TrkB) of 0.09 µM and an EC50 (TrkA) of 0.12 µM.

`COc1ccc(-n2c(=O)[nH]c(=O)n(-c3ccc(Oc4ccccc4)c(Cn4ccnc4)c3)c2=O)cc1` [Example 7, 1-{3-[(1H-imidazol-1-yl)methyl]-4-phenoxyphenyl}-3-(4-methoxyphenyl)-1,3,5-triazinane-2,4,6-trione] gave an EC50 (TrkB) of 0.45 µM and an EC50 (TrkA) of 0.72 µM.

Compound `Cc1cccc(-n2c(=O)[nH]c(=O)n(-c3ccc(Oc4ccccc4)c(-n4cnc(C)c4)c3)c2=O)c1` [Example 13, 1-[3-(4-methyl-1H-imidazol-1-yl)-4-phenoxyphenyl]-3-(3-methylphenyl)-1,3,5-triazinane-2,4,6-trione] has an EC50 (TrkB) of 0.47 µM and an EC50 (TrkA) of 0.65 µM.

`O=c1[nH]c(=O)n(-c2ccc(Oc3ccccc3)c(Cn3cccn3)c2)c(=O)n1-c1ccccc1` [Example 1, 1-{4-phenoxy-3-[(1H-pyrazol-1-yl)methyl]phenyl}-3-phenyl-1,3,5-triazinane-2,4,6-trione] showed an EC50 (TrkC) of 0.12 µM, an EC50 (TrkB) of 0.2 µM and an EC50 (TrkA) of 0.16 µM.

In the case of `O=c1[nH]c(=O)n(-c2ccc(Oc3ccccc3)c(Cn3cc(F)cn3)c2)c(=O)n1-c1ccccc1` [Example 14, 1-{3-[(4-fluoro-1H-pyrazol-1-yl)methyl]-4-phenoxyphenyl}-3-phenyl-1,3,5-triazinane-2,4,6-trione], the EC50 (TrkB) is reported as 0.18 µM and the EC50 (TrkA) is reported as 0.18 µM.

Work on `Cc1cccc(-n2c(=O)[nH]c(=O)n(-c3ccc(Oc4ccc(F)cc4)c(Cn4ccnc4)c3)c2=O)c1` [Example 8, 1-[4-(4-fluorophenoxy)-3-[(1H-imidazol-1-yl)methyl]phenyl]-3-(3-methylphenyl)-1,3,5-triazinane-2,4,6-trione] yielded an EC50 (TrkB) of 0.17 µM and an EC50 (TrkA) of 0.19 µM.

For “1-{3-[(4-methyl-1H-imidazol-1-yl)methyl]-4-phenoxyphenyl}-3-(3-methylphenyl)-1,3,5-triazinane-2,4,6-trione+1-{3-[(5-methyl-1H-imidazol-1-yl)methyl]-4-phenoxyphenyl}-3-(3-methylphenyl)-1,3,5-triazinane-2,4,6-trione [Example 11]”, the EC50 (TrkB) was 0.14 µM and the EC50 (TrkA) was 0.22 µM.

With `O=c1[nH]c(=O)n(-c2ccc(Oc3ccccc3)c(Cn3cncn3)c2)c(=O)n1-c1ccccc1` [Example 3, 1-{4-phenoxy-3-[(1H-1,2,4-triazol-1-yl)methyl]phenyl}-3-phenyl-1,3,5-triazinane-2,4,6-trione] the EC50 (TrkB) was 0.81 µM and the EC50 (TrkA) was 0.52 µM.

`Cc1cccc(-n2c(=O)[nH]c(=O)n(-c3ccc(Oc4ccccc4)c(Cn4ccnc4)c3)c2=O)c1` [Example 6, 1-{3-[(1H-imidazol-1-yl)methyl]-4-phenoxyphenyl}-3-(3-methylphenyl)-1,3,5-triazinane-2,4,6-trione] showed an EC50 (TrkB) of 0.2 µM and an EC50 (TrkA) of 0.16 µM.

For `Cc1cc(-n2c(=O)[nH]c(=O)n(C)c2=O)ccc1Oc1ccc(SC(F)(F)F)cc1` [toltrazuril, 1-methyl-3-(3-methyl-4-{4-[(trifluoromethyl)sulfanyl]phenoxy}phenyl)-1,3,5-triazinane-2,4,6-trione], the “inhibition of the binding of β-amyloid oligomers to EphB2” value [1] is given as 30%.

Work on `O=c1[nH]c(=O)n(-c2ccc(Oc3ccccc3)c(Cn3ccnc3)c2)c(=O)n1-c1ccccc1` [Example 2, 1-{3-[(1H-imidazol-1-yl)methyl]-4-phenoxyphenyl}-3-phenyl-1,3,5-triazinane-2,4,6-trione] yielded an EC50 (TrkC) of 0.2 µM, an EC50 (TrkB) of 0.27 µM and an EC50 (TrkA) of 0.38 µM.

Source: patent publication US11840524B2, “4-substituted phenyl-1,3,5-triazine derivatives as modulators of TrK receptors” (ALZECURE PHARMA AB, priority 2018, dated 2023)
